# Measured values from publication PMC6753678, “Fueling Open Innovation for Malaria Transmission-Blocking Drugs: Hundreds of Molecules Targeting Early Parasite Mosquito Stages” (Frontiers in Microbiology, 2019).
# Columns and labels:
# [1] = system: HepG2 cells; experiment: HepG2 cytotoxicity assay; details: HepG2 cytotoxicity unified across screens; >25 set to 25.00
# Summary of the method: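 Cells at 2,500 per well in MEM with 10% fetal bovine serum and 1% NEAA were exposed to test compounds for 48 h at 37°C, 5% CO2. Viability was read by fluorescence, with percent inhibition calculated against 50 μM doxorubicin (positive) and DMSO (negative) controls.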
# [2] = system: P. falciparum late stage (stages IV-V) gametocytes; design: method as in Almela et al 2016; details: P. falciparum late stage gametocyte ATP assay, TCAMS screen; ref Almela et al 2016; read-out: Pf GCT ATP IC50; cited from earlier work
# [3] = system: P. falciparum late stage (stages IV-V) gametocytes; experiment: P. falciparum late stage gametocyte ATP depletion assay (Pf GC-ATP); details: 1: YES; 0: NO; >10-fold selectivity over cytotoxicity
SMILES,Unified cytotox [1] [µM],IC50 [2] [nM],Is compound selective in assay? Pf GC-ATP active? [3]
CS(=O)(=O)CCNCc1nc(-c2ccc3c(=O)[nH]cnc3c2)cs1 [TCMDC-138539],4.20,2680,0 (0: NO)
Cl.O=C(NCCCCN1CCC(c2ccc3c(c2OCCO)CCCC3)CC1)c1ccc2oc(-c3ccc(C(F)(F)F)cc3)cc2c1 [TCMDC-138771],6.59,630,1 (1: YES)
C=C(C)Cn1cc(C2CCN(CCN3CCC(CNC(=O)c4ccc(-c5ccc(C#N)cc5)cc4)CC3)CC2)c2ccccc21 [TCMDC-138854],3.70,2930,0 (0: NO)
O=C(NCCCCN1CCC(c2c[nH]c3ccc(-c4ccccc4)cc23)CC1)c1ccc(-c2ccccc2)cc1.O=C(O)C(=O)O [TCMDC-139064],9.40,1830,0 (0: NO)
CCCCCCCN1CC[C@@H](CCCc2ccnc3ccc(OC)cc23)[C@@H](CCN)C1.O=C(O)C(=O)O [TCMDC-139278],2.98,270,1 (1: YES)
COc1ccc(COc2cc(NCCCN)nc3ccccc23)cc1 [TCMDC-139286],13.98,560,1 (1: YES)
O=C(/C=C/c1ccc(Cl)c(Cl)c1)NCCCCCN1CCCC(CNS(=O)(=O)c2cccc(C(F)(F)F)c2)C1 (stereo not drawn) [TCMDC-139597],3.80,8630,0 (0: NO)
CC(C)CCNC(=O)c1cnc2c(O)cccc2c1Nc1cccc(NC(=O)c2ccc(F)cc2)c1.O=C(O)C(F)(F)F [TCMDC-139606],5.27,1270,0 (0: NO)
O=C(Nc1ccc(Oc2ccccc2)cc1)N(CCN1CCCC1)Cc1ccc(-c2ccc(CN3CCNCC3)cc2)cc1.O=C(O)C(F)(F)F [TCMDC-139652],7.08,1020,0 (0: NO)
COc1ccc(CCNC(C)Cc2ccc(C(=O)Nc3ccc(CC(C)NCCc4cccc(Cl)c4)cc3)cc2)cc1 (stereo not drawn) [TCMDC-139750],2.40,620,0 (0: NO)
CC(CCCC(=O)Nc1ccc(CC(C)NCCc2cccc(Cl)c2)cc1)NCCc1cccc(Cl)c1 (stereo not drawn) [TCMDC-139798],4.50,820,0 (0: NO)
CC(CCCCC(=O)Nc1ccc(CC(C)NCCc2cccc(Cl)c2)cc1)NCCc1cccc(Cl)c1 (stereo not drawn) [TCMDC-139799],6.59,1660,0 (0: NO)
CCCCCCCN1CC[C@@H](CCCc2ccnc3ccc(OCC4CCCNC4)cc23)[C@@H](CC)C1.Cl (stereo partly drawn) [TCMDC-139816],4.18,300,1 (1: YES)
CCCCCCCN1CC[C@@H](CCCc2ccnc3ccc(OCCC4CCNCC4)cc23)[C@@H](CC)C1.Cl [TCMDC-139819],4.50,420,1 (1: YES)
CCCCCCCN1CC[C@@H](CCCc2ccnc3ccc(OCCCCN/C(N)=N/O)cc23)[C@@H](CC)C1.O=C(O)C(=O)O [TCMDC-139839],17.20,470,1 (1: YES)
CC(Cc1ccc(COc2ccc(CC(CO)NCCc3cccc(Cl)c3)cc2)cc1)NCCc1cccc(Cl)c1.Cl (stereo not drawn) [TCMDC-139844],3.50,1390,0 (0: NO)
Cl.O=C(/C=C/c1ccc(Cl)c(Cl)c1)N1CCC(CCN2CCC(c3c[nH]c4cnccc34)CC2)CC1 [TCMDC-140136],7.21,200,1 (1: YES)
Cc1cccc2[nH]cc(C3CCN(CC4CCC(NC(=O)/C=C/c5ccc(Cl)c(Cl)c5)CC4)CC3)c12.Cl (stereo not drawn) [TCMDC-140137],2.95,1450,0 (0: NO)
COc1cc(NCC(C)CNCc2cn(Cc3ccccc3)c3ccccc23)nc2ccccc12 (stereo not drawn) [TCMDC-140496],5.00,1710,0 (0: NO)
CN(C)CCN(Cc1ccccc1-c1ccc(CNCCc2ccccc2)cc1)C(=O)c1ccccc1.O=C(O)C(F)(F)F [TCMDC-140532],7.54,780,0 (0: NO)

SMILES,Unified cytotox [1] [µM],IC50 [2] [nM],Is compound selective in assay? Pf GC-ATP active? [3]
CC(C)CNCc1cccc(-c2cccc(CN(CCCN3CCN(C)CC3)C(=O)/C=C/c3ccccc3)c2)c1.O=C(O)C(F)(F)F [TCMDC-140541],7.47,560,1 (1: YES)
CN1CCN(CCCN(Cc2cccc(-c3cccc(CNC4CCCC4)c3)c2)C(=O)/C=C/c2ccccc2)CC1.O=C(O)C(F)(F)F [TCMDC-140543],7.17,800,0 (0: NO)
CC(C)CNCc1cccc(-c2ccc(CN(CCCN3CCN(C)CC3)C(=O)/C=C/c3ccccc3)cc2)c1.O=C(O)C(F)(F)F [TCMDC-140545],6.65,630,1 (1: YES)
CC(C)CNCc1ccc(-c2ccc(CN(CCCN3CCN(C)CC3)C(=O)/C=C/c3ccccc3)cc2)cc1.O=C(O)C(F)(F)F [TCMDC-140546],6.99,1000,0 (0: NO)
CC(C)CNCc1ccc(-c2cccc(CN(CCN(C)C)C(=O)CCC3CCCC3)c2)cc1.O=C(O)C(F)(F)F [TCMDC-140553],5.50,540,1 (1: YES)
CC(C)CNCc1cccc(-c2cccc(CN(CCCN3CCN(C)CC3)C(=O)CCC3CCCC3)c2)c1.O=C(O)C(F)(F)F [TCMDC-140554],4.55,600,0 (0: NO)
CN1CCN(CCCN(Cc2cccc(-c3cccc(CNC4CCCC4)c3)c2)C(=O)CCC2CCCC2)CC1.O=C(O)C(F)(F)F [TCMDC-140555],7.50,810,0 (0: NO)
CC(C)CNCc1ccc(-c2ccc(CN(CCCN3CCN(C)CC3)C(=O)CCC3CCCC3)cc2)cc1.O=C(O)C(F)(F)F [TCMDC-140559],5.39,540,0 (0: NO)
CN1CCN(CCCN(Cc2ccc(-c3ccc(CNC4CCCC4)cc3)cc2)C(=O)CCC2CCCC2)CC1.O=C(O)C(F)(F)F [TCMDC-140560],6.00,530,1 (1: YES)
O=C(O)C(F)(F)F.O=C(c1cccs1)N(Cc1cccc(-c2ccc(CNC3CCCC3)cc2)c1)C1CCN(Cc2ccccc2)CC1 [TCMDC-140567],7.10,850,0 (0: NO)
CC(C)CNCc1cccc(-c2cccc(CN(CCN(C)C)C(=O)Nc3ccccc3)c2)c1.O=C(O)C(F)(F)F [TCMDC-140592],15.78,660,1 (1: YES)
CN1CCN(CCCN(Cc2ccc(-c3cccc(CNC4CCCC4)c3)cc2)C(=O)Nc2ccccc2)CC1.O=C(O)C(F)(F)F [TCMDC-140605],14.26,180,1 (1: YES)
O=C(NCCc1ccccc1)N(Cc1cccc(-c2ccc(CNC3CCCC3)cc2)c1)C1CCN(Cc2ccccc2)CC1.O=C(O)C(F)(F)F [TCMDC-140618],7.42,1310,0 (0: NO)
CN(C)CCN(Cc1ccccc1-c1ccc(CNCCc2ccccc2)cc1)C(=O)NC1CCCCC1.O=C(O)C(F)(F)F [TCMDC-140626],6.40,350,1 (1: YES)
CC(C)CNCc1ccc(-c2cccc(CN(C(=O)NC3CCCCC3)C3CCN(Cc4ccccc4)CC3)c2)cc1.O=C(O)C(F)(F)F [TCMDC-140628],1.81,1660,0 (0: NO)
CC(C)CNCc1cccc(-c2cccc(CN(CCCN3CCN(C)CC3)C(=O)NC3CCCCC3)c2)c1.O=C(O)C(F)(F)F [TCMDC-140633],16.75,1780,0 (0: NO)
O=C(C1CC1c1ccccc1)N(Cc1ccc(-c2ccc(CNCCc3ccccc3)cc2)cc1)C1CCNCC1.O=C(O)C(F)(F)F (stereo not drawn) [TCMDC-141443],6.70,390,1 (1: YES)
O=C(CC1CCCC1)N(Cc1ccc(-c2ccc(CNC3Cc4ccccc4C3)cc2)cc1)CC1CCCCN1.O=C(O)C(F)(F)F (stereo not drawn) [TCMDC-141446],6.47,1000,0 (0: NO)
CC(C)CC(=O)N(Cc1ccc(-c2ccc(CNC3Cc4ccccc4C3)cc2)cc1)C1CCNCC1.O=C(O)C(F)(F)F [TCMDC-141449],6.20,630,0 (0: NO)
O=C(COc1ccccc1)N(Cc1ccc(-c2ccc(CNC3Cc4ccccc4C3)cc2)cc1)C1CCNCC1.O=C(O)C(F)(F)F [TCMDC-141450],7.80,990,0 (0: NO)
